Experimental data as given in BindingDB's records for doi:10.1016/j.ejmech.2020.112422 (China Medical University, 2020).

Assays:
[1] = Inhibition of ABCB1 in FLp-In-293 cells assessed as potentiation of vincristine-induced cytotoxicity by measuring vincristine IC50 at 2.5 uM measured after 72 hrs by SRB assay (Rvb = 6 +/- 0.2 nM)
[2] = Inhibition of ABCB1 in human KB-VIN cells assessed as potentiation of doxorubicin-induced cytotoxicity by measuring doxorubicin IC50 at 2.5 uM measured after 72 hrs by SRB assay (Rvb = 4736 +/- 59 nM)
[3] = Inhibition of ABCB1 in human HeLa S3 cells assessed as potentiation of paclitaxel-induced cytotoxicity by measuring paclitaxel IC50 at 2.5 uM measured after 72 hrs by SRB assay (Rvb = 26.50 +/- 4.1 nM)
[4] = Inhibition of human full-length ABCB1 expressed in FLp-In-293 cells assessed as potentiation of paclitaxel-induced cytotoxicity by measuring paclitaxel IC50 at 2.5 uM measured after 72 hrs by SRB assay (Rvb = 797 +/- 73 nM)
[5] = Inhibition of ABCB1 in human KB-VIN cells assessed as potentiation of vincristine-induced cytotoxicity by measuring vincristine IC50 at 5 uM measured after 72 hrs by SRB assay (Rvb = 2867 +/- 142 nM)
[6] = Inhibition of ABCB1 in FLp-In-293 cells assessed as potentiation of doxorubicin-induced cytotoxicity by measuring doxorubicin IC50 at 2.5 uM measured after 72 hrs by SRB assay (Rvb = 80 +/- 10 nM)
[7] = Inhibition of ABCB1 in human HeLa S3 cells assessed as potentiation of doxorubicin-induced cytotoxicity by measuring doxorubicin IC50 at 2.5 uM measured after 72 hrs by SRB assay (Rvb = 242 +/- 5 nM)
[8] = Inhibition of human full-length ABCB1 expressed in FLp-In-293 cells assessed as potentiation of doxorubicin-induced cytotoxicity by measuring doxorubicin IC50 at 5 uM measured after 72 hrs by SRB assay (Rvb = 2264 +/- 196 nM)
[9] = Inhibition of ABCB1 in FLp-In-293 cells assessed as potentiation of paclitaxel-induced cytotoxicity by measuring paclitaxel IC50 at 2.5 uM measured after 72 hrs by SRB assay (Rvb = 11.8 +/- 1.13 nM)
[10] = Inhibition of human full-length ABCB1 expressed in FLp-In-293 cells assessed as potentiation of doxorubicin-induced cytotoxicity by measuring doxorubicin IC50 at 2.5 uM measured after 72 hrs by SRB assay (Rvb = 2264 +/- 196 nM)
[11] = Inhibition of human full-length ABCB1 expressed in FLp-In-293 cells assessed as potentiation of vincristine-induced cytotoxicity by measuring vincristine IC50 at 5 uM measured after 72 hrs by SRB assay (Rvb = 823 +/- 16 nM)
[12] = Inhibition of ABCB1 in FLp-In-293 cells assessed as potentiation of paclitaxel-induced cytotoxicity by measuring paclitaxel IC50 at 5 uM measured after 72 hrs by SRB assay (Rvb = 11.8 +/- 1.13 nM)
[13] = Inhibition of ABCB1 in human KB-VIN cells assessed as potentiation of paclitaxel-induced cytotoxicity by measuring paclitaxel IC50 at 5 uM measured after 72 hrs by SRB assay (Rvb = 1762 +/- 63 nM)
[14] = Inhibition of human full-length ABCB1 expressed in FLp-In-293 cells assessed as potentiation of paclitaxel-induced cytotoxicity by measuring paclitaxel IC50 at 5 uM measured after 72 hrs by SRB assay (Rvb = 797 +/- 73 nM)
[15] = Inhibition of ABCB1 in human HeLa S3 cells assessed as potentiation of doxorubicin-induced cytotoxicity by measuring doxorubicin IC50 at 5 uM measured after 72 hrs by SRB assay (Rvb = 242 +/- 5 nM)
[16] = Inhibition of human full-length ABCB1 expressed in FLp-In-293 cells assessed as potentiation of vincristine-induced cytotoxicity by measuring vincristine IC50 at 2.5 uM measured after 72 hrs by SRB assay (Rvb = 823 +/- 16 nM)
[17] = Inhibition of ABCB1 in human KB-VIN cells assessed as potentiation of doxorubicin-induced cytotoxicity by measuring doxorubicin IC50 at 5 uM measured after 72 hrs by SRB assay (Rvb = 4736 +/- 59 nM)
[18] = Inhibition of ABCB1 in FLp-In-293 cells assessed as potentiation of vincristine-induced cytotoxicity by measuring vincristine IC50 at 5 uM measured after 72 hrs by SRB assay (Rvb = 6 +/- 0.2 nM)
[19] = Inhibition of ABCB1 in human KB-VIN cells assessed as potentiation of vincristine-induced cytotoxicity by measuring vincristine IC50 at 2.5 uM measured after 72 hrs by SRB assay (Rvb = 2867 +/- 142 nM)
[20] = Inhibition of ABCB1 in human HeLa S3 cells assessed as potentiation of vincristine-induced cytotoxicity by measuring vincristine IC50 at 5 uM measured after 72 hrs by SRB assay (Rvb = 4.55 +/- 0.28 nM)
[21] = Inhibition of ABCB1 in human HeLa S3 cells assessed as potentiation of paclitaxel-induced cytotoxicity by measuring paclitaxel IC50 at 5 uM measured after 72 hrs by SRB assay (Rvb = 26.50 +/- 4.1 nM)
[22] = Inhibition of ABCB1 in human KB-VIN cells assessed as potentiation of paclitaxel-induced cytotoxicity by measuring paclitaxel IC50 at 2.5 uM measured after 72 hrs by SRB assay (Rvb = 1762 +/- 63 nM)
[23] = Inhibition of ABCB1 in FLp-In-293 cells assessed as potentiation of doxorubicin-induced cytotoxicity by measuring doxorubicin IC50 at 5 uM measured after 72 hrs by SRB assay (Rvb = 80 +/- 10 nM)
[24] = Inhibition of ABCB1 in human HeLa S3 cells assessed as potentiation of vincristine-induced cytotoxicity by measuring vincristine IC50 at 2.5 uM measured after 72 hrs by SRB assay (Rvb = 4.55 +/- 0.28 nM)

## COc1ccc(-c2cc(OC(C)=O)c3c(-c4cccs4)c(N(C(C)=O)C(C)=O)oc3c2)cc1
[1]
  IC50: 4.5 nM
[2]
  IC50: 1740 nM
[3]
  IC50: 14 nM
[4]
  IC50: 647 nM
[5]
  IC50: 314 nM
[6]
  IC50: 87 nM
[7]
  IC50: 105 nM
[8]
  IC50: 677 nM
[9]
  IC50: 11 nM
[10]
  IC50: 874 nM
[11]
  IC50: 582 nM
[12]
  IC50: 10 nM
[13]
  IC50: 597 nM
[14]
  IC50: 645 nM
[15]
  IC50: 102 nM
[16]
  IC50: 663 nM
[17]
  IC50: 1500 nM
[18]
  IC50: 4 nM
[19]
  IC50: 501 nM
[20]
  IC50: 5.2 nM
[21]
  IC50: 14 nM
[22]
  IC50: 652 nM
[23]
  IC50: 82 nM
[24]
  IC50: 5.7 nM

## COc1ccc(-c2cc(OC(C)=O)c3c(-c4cccs4)c(NC(=O)c4ccccc4C)oc3c2)cc1
[1]
  IC50: 0.88 nM
[2]
  IC50: 1550 nM
[3]
  IC50: 11 nM
[4]
  IC50: 109 nM
[5]
  IC50: 6.5 nM
[6]
  IC50: 89 nM
[7]
  IC50: 116 nM
[8]
  IC50: 478 nM
[9]
  IC50: 9.1 nM
[10]
  IC50: 525 nM
[11]
  IC50: 8.9 nM
[12]
  IC50: 7.2 nM
[13]
  IC50: 46 nM
[14]
  IC50: 55 nM
[15]
  IC50: 103 nM
[16]
  IC50: 84 nM
[17]
  IC50: 397 nM
[18]
  IC50: 0.83 nM
[19]
  IC50: 36 nM
[20]
  IC50: 3.7 nM
[21]
  IC50: 8.9 nM
[22]
  IC50: 345 nM
[23]
  IC50: 82 nM
[24]
  IC50: 5.1 nM

## COc1ccc(-c2cc(OC(C)=O)c3c(-c4cccs4)c(NC(=O)c4ccccc4Cl)oc3c2)cc1
[1]
  IC50: 0.88 nM
[3]
  IC50: 9.6 nM
[4]
  IC50: 602 nM
[5]
  IC50: 7.6 nM
[6]
  IC50: 77 nM
[7]
  IC50: 111 nM
[8]
  IC50: 502 nM
[9]
  IC50: 6.4 nM
[10]
  IC50: 564 nM
[11]
  IC50: 9.2 nM
[12]
  IC50: 6.3 nM
[13]
  IC50: 21 nM
[14]
  IC50: 91 nM
[15]
  IC50: 86 nM
[16]
  IC50: 114 nM
[17]
  IC50: 102 nM
[18]
  IC50: 0.82 nM
[19]
  IC50: 37 nM
[20]
  IC50: 2.2 nM
[21]
  IC50: 8.8 nM
[22]
  IC50: 80 nM
[23]
  IC50: 73 nM
[24]
  IC50: 3.9 nM

## COc1ccc(-c2cc(OC(C)=O)c3c(-c4cccs4)c(NC(=O)c4cccc(F)c4)oc3c2)cc1
[1]
  IC50: 6.3 nM
[2]
  IC50: 2210 nM
[3]
  IC50: 12 nM
[4]
  IC50: 621 nM
[5]
  IC50: 12 nM
[6]
  IC50: 81 nM
[7]
  IC50: 93 nM
[8]
  IC50: 504 nM
[9]
  IC50: 6.6 nM
[10]
  IC50: 559 nM
[11]
  IC50: 25 nM
[12]
  IC50: 5.3 nM
[13]
  IC50: 48 nM
[14]
  IC50: 77 nM
[15]
  IC50: 87 nM
[16]
  IC50: 96 nM
[17]
  IC50: 1400 nM
[18]
  IC50: 3.7 nM
[19]
  IC50: 60 nM
[20]
  IC50: 4.7 nM
[21]
  IC50: 11 nM
[22]
  IC50: 116 nM
[23]
  IC50: 82 nM
[24]
  IC50: 5.4 nM
